How the values were obtained:
[1] = system: human SARS-CoV Toronto-2 strain; format: cell-based

SMILES | EC50 [1] | Average Inhibition (%) at 32 μM [1] | CC50 (Vero E6 cells) | toxicity to normal cells in cell viability assays (Vero E6 cells; at 23 μM)
O=C(NN=C1C(=O)Nc2ccccc21)NC1CCS(=O)(=O)C1 (racemic) [CS07] | > 100 µM | 1% | > 100 µM | –
CN1CCc2c(sc3c2C(=O)NC(c2ccc(O)c(O)c2)N3)C1 (stereo not shown) [CS01] | > 100 µM | 0% | > 100 µM | –
CS(=O)(=O)c1ccc2c(c1)nc(C(F)(F)F)n2C1CCNCC1 [CS02] | > 100 µM | 0% | > 100 µM | –
NC(c1cc(C(F)(F)F)cc(C(F)(F)F)c1)c1cc(C(F)(F)F)cc(C(F)(F)F)c1 [CS03] | > 100 µM | 0% | > 100 µM | –
CC(=O)Nc1ccc(N2C(=O)CC(N3CC(C)OC(C)C3)C2=O)cc1 (stereo not shown) [CS04] | > 100 µM | 4% | > 100 µM | –
CCN1C(=O)c2cccc3c(NC(=O)c4ccc([N+](=O)[O-])s4)ccc1c23 [CS05] | > 100 µM | 0% | 10 µM | –
CN1CCC(c2nc(-c3ccc(Cl)cc3)cc(C(F)(F)F)n2)CC1 [CS06] | > 100 µM | 0% | 95 µM | –
CC(=O)Nc1ccc2c(c1)[C@H]1C=CC[C@@H]1[C@H](c1ccc([N+](=O)[O-])cc1)N2 [CS08] | > 100 µM | 17% | > 100 µM | –
O=C(O)c1ccc(C2Nc3c(Cl)cc(Cl)c(Cl)c3C3C=CCC32)cc1 (stereo not shown) [CS09] | > 100 µM | 13% | 85 µM | –
N=C1C(=Cc2ccc3c(c2)OCO3)C(=O)C=C2SC(C(F)(F)F)=NN12 [CS10] | > 100 µM | 14% | 67 µM | –
O=C(O)c1ccc(N=Cc2c(O)ccc3oc4c(c23)CCCC4)cc1 [CS11] | 23 µM | 66% | 76 µM | not toxic
Cc1ccc([N+](=O)[O-])cc1N1C(=O)c2ccc(C(=O)O)cc2C1=O [CS12] | > 100 µM | 13% | > 100 µM | –
